Assays:
pigweed = experiment: Test B pre/postemergence pigweed; type: in vivo, Amaranthus retroflexus
Summary of the method: (§1)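 Herbicidal effect was estimated by eye on a ten-point control scale after plants spent twelve to sixteen days in a greenhouse following soil or foliar treatment. Foliar sprays targeted plants at one to four leaves; all doses were formulated in a non-phytotoxic solvent with surfactant.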

purple nutsedge = experiment: Test B pre/postemergence purple nutsedge; type: in vivo, Cyperus rotundus
Summary of the method: as §1

bamyardgrass = experiment: Test B flood test barnyardgrass; type: in vivo, Echinochloa crus-galli
Summary of the method: (§2)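 Each value is a visual injury score relative to controls, with 10 meaning complete control and 0 no effect. Evaluation took place twelve to sixteen days after the 2-leaf-stage plants were treated and kept in the greenhouse.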

blackgrass = experiment: Test B pre/postemergence blackgrass; type: in vivo, Alopecurus myosuroides
Summary of the method: as §1

velvetleaf = experiment: Test B pre/postemergence velvetleaf; type: in vivo, Abutilon theophrasti
Summary of the method: as §1

rape = experiment: Test B pre/postemergence rape; type: in vivo, Brassica napus
Summary of the method: as §1

crabgrass = experiment: Test B pre/postemergence crabgrass; type: in vivo, Digitaria sanguinalis
Summary of the method: as §1

bedstraw = experiment: Test B pre/postemergence bedstraw; type: in vivo, Galium aparine; settings: Postemergence, Rate 62 g/ha; scale 0 to 10, 0 is no effect, 10 is complete control
Summary of the method: as §1

smallflower flatsedge = experiment: Test B flood test smallflower flatsedge; type: in vivo, Cyperus difformis
Summary of the method: as §2

soybean = experiment: Test B pre/postemergence soybean; type: in vivo, Glycine max
Summary of the method: as §1

surinam grass = experiment: Test B pre/postemergence surinam grass; type: in vivo, Brachiaria decumbens
Summary of the method: as §1

wild oat = experiment: Test B pre/postemergence wild oat; type: in vivo, Avena fatua
Summary of the method: as §1

cocklebur = experiment: Test B pre/postemergence cocklebur; type: in vivo, Xanthium strumarium
Summary of the method: as §1

corn = experiment: Test B pre/postemergence corn; type: in vivo, Zea mays
Summary of the method: as §1

wheat = experiment: Test B pre/postemergence wheat; type: in vivo, Triticum aestivum
Summary of the method: as §1

sugar beet = experiment: Test B pre/postemergence sugar beet; type: in vivo, Beta vulgaris
Summary of the method: as §1

[1] = Postemergence, Rate 62 g/ha, scale 0 to 10, 0 is no effect, 10 is complete control
[2] = Postemergence, Rate 125 g/ha, scale of 0 to 10 where 0 is no effect and 10 is complete control
[3] = Preemergence, Rate 62 g/ha, scale of 0 to 10 where 0 is no effect and 10 is complete control
[4] = Preemergence, Rate 125 g/ha, scale of 0 to 10 where 0 is no effect and 10 is complete control
[5] = Preemergence, Rate 250 g/ha, scale 0 to 10 (0 no effect, 10 complete control)
[6] = Preemergence, Rate 500 g/ha, scale of 0 to 10 where 0 is no effect and 10 is complete control
[7] = Rate 500 g/ha, Postemergence, scale 0 to 10, 0 is no effect, 10 is complete control
[8] = Rate 62 g/ha, flood test species, Pre-emergence, visual evaluation after twelve to sixteen days
[9] = Rate 125 g/ha, under heading Pre-emergence, flood test species, visual evaluation after twelve to sixteen days
[10] = Rate 250 g/ha, Pre-emergence (flood test species), scale 0 to 10, 0 is no effect, 10 is complete control
[11] = Rate 500 g/ha, Pre-emergence section of Table B, 0 to 10 scale (0 no effect, 10 complete control)
[12] = Postemergence, Rate 250 g/ha, scale of 0 to 10, 0 is no effect, 10 is complete control

**Q.** For `CC[C@@H](C)n1c(=O)on(C(=O)N(c2ccc(F)cc2F)C(C)C)c1=O` [Compound 667], which “Plant response rating, Redroot pigweed” value (pigweed; [1]) is on record?
**A.** 2

**Q.** And the “Redroot pigweed plant response rating” value (pigweed; [2])?
**A.** 5

**Q.** What about the “Redroot pigweed plant response rating” value (pigweed; [3]) of the same molecule?
**A.** 10

**Q.** What about the “Redroot pigweed plant response rating” value (pigweed; [4]) of the same molecule?
**A.** 10

**Q.** And the “Plant response rating, Redroot pigweed” value (pigweed; [5])?
**A.** 10

**Q.** And the “Plant response rating, Redroot pigweed” value (pigweed; [6])?
**A.** 10

**Q.** What about the “Redroot pigweed plant response rating” value (pigweed; [7]) of the same molecule?
**A.** 7

**Q.** What about the “Plant response rating, Nutsedge” value (purple nutsedge; [1]) of the same molecule?
**A.** 0

**Q.** What about the “Nutsedge plant response rating” value (purple nutsedge; [2]) of the same molecule?
**A.** 0

**Q.** And the “Nutsedge plant response rating” value (purple nutsedge; [3])?
**A.** 0

**Q.** What about the “Nutsedge plant response rating” value (purple nutsedge; [4]) of the same molecule?
**A.** 0

**Q.** And the “Plant response rating, Nutsedge” value (purple nutsedge; [5])?
**A.** 3

**Q.** What about the “Plant response rating, Nutsedge” value (purple nutsedge; [6]) of the same molecule?
**A.** 7

**Q.** What about the “Nutsedge plant response rating” value (purple nutsedge; [7]) of the same molecule?
**A.** 0

**Q.** And the “Plant response rating, Barnyardgrass (0 to 10 scale, 0 is no effect, 10 is complete control)” value (bamyardgrass; [8])?
**A.** 0

**Q.** What about the “Barnyardgrass plant response rating (0 to 10 scale, 0 is no effect, 10 is complete control)” value (bamyardgrass; [9]) of the same molecule?
**A.** 0

**Q.** And the “Barnyardgrass plant response rating” value (bamyardgrass; [10])?
**A.** 0

**Q.** What about the “Barnyardgrass plant response rating” value (bamyardgrass; [11]) of the same molecule?
**A.** 0

**Q.** And the “Plant response rating, Blackgrass” value (blackgrass; [1])?
**A.** 6

**Q.** And the “Blackgrass plant response rating” value (blackgrass; [2])?
**A.** 8

**Q.** What about the “Blackgrass plant response rating” value (blackgrass; [12]) of the same molecule?
**A.** 8

**Q.** And the “Blackgrass plant response rating” value (blackgrass; [3])?
**A.** 8

**Q.** And the “Blackgrass plant response rating” value (blackgrass; [4])?
**A.** 8

**Q.** And the “Plant response rating, Blackgrass” value (blackgrass; [5])?
**A.** 8

**Q.** What about the “Plant response rating, Blackgrass” value (blackgrass; [6]) of the same molecule?
**A.** 10

**Q.** And the “Blackgrass plant response rating” value (blackgrass; [7])?
**A.** 8

**Q.** What about the “Plant response rating, Velvetleaf” value (velvetleaf; [1]) of the same molecule?
**A.** 5

**Q.** What about the “Velvetleaf plant response rating” value (velvetleaf; [2]) of the same molecule?
**A.** 6

**Q.** And the “Velvetleaf plant response rating” value (velvetleaf; [3])?
**A.** 6

**Q.** What about the “Velvetleaf plant response rating” value (velvetleaf; [4]) of the same molecule?
**A.** 6

**Q.** What about the “Plant response rating, Velvetleaf” value (velvetleaf; [5]) of the same molecule?
**A.** 8

**Q.** And the “Plant response rating, Velvetleaf” value (velvetleaf; [6])?
**A.** 10

**Q.** What about the “Velvetleaf plant response rating” value (velvetleaf; [7]) of the same molecule?
**A.** 8

**Q.** What about the “Plant response rating, Rape” value (rape; [1]) of the same molecule?
**A.** 0

**Q.** What about the “Rape plant response rating” value (rape; [2]) of the same molecule?
**A.** 4

**Q.** What about the “Rape plant response rating” value (rape; [3]) of the same molecule?
**A.** 7

**Q.** And the “Rape plant response rating” value (rape; [4])?
**A.** 8

**Q.** And the “Plant response rating, Rape” value (rape; [5])?
**A.** 10

**Q.** And the “Plant response rating, Rape” value (rape; [6])?
**A.** 10

**Q.** And the “Rape plant response rating” value (rape; [7])?
**A.** 6

**Q.** What about the “Plant response rating, Crabgrass” value (crabgrass; [1]) of the same molecule?
**A.** 6

**Q.** And the “Crabgrass plant response rating” value (crabgrass; [2])?
**A.** 8

**Q.** And the “Crabgrass plant response rating” value (crabgrass; [12])?
**A.** 9

**Q.** And the “Crabgrass plant response rating” value (crabgrass; [3])?
**A.** 8

**Q.** And the “Crabgrass plant response rating” value (crabgrass; [4])?
**A.** 8

**Q.** And the “Plant response rating, Crabgrass” value (crabgrass; [5])?
**A.** 10

**Q.** And the “Plant response rating, Crabgrass” value (crabgrass; [6])?
**A.** 10

**Q.** And the “Crabgrass plant response rating” value (crabgrass; [7])?
**A.** 10

**Q.** And the “Plant response rating, Bedstraw” value (bedstraw)?
**A.** 0

**Q.** And the “Plant response rating, S. Flatsedge (0 to 10 scale, 0 is no effect, 10 is complete control)” value (smallflower flatsedge; [8])?
**A.** 0

**Q.** And the “S. Flatsedge plant response rating (0 to 10 scale, 0 is no effect, 10 is complete control)” value (smallflower flatsedge; [9])?
**A.** 0

**Q.** And the “S. Flatsedge plant response rating” value (smallflower flatsedge; [10])?
**A.** 0

**Q.** What about the “S. Flatsedge plant response rating” value (smallflower flatsedge; [11]) of the same molecule?
**A.** 0

**Q.** What about the “Plant response rating, Soybean” value (soybean; [1]) of the same molecule?
**A.** 2

**Q.** What about the “Soybean plant response rating” value (soybean; [2]) of the same molecule?
**A.** 3

**Q.** And the “Soybean plant response rating” value (soybean; [3])?
**A.** 0

**Q.** And the “Soybean plant response rating” value (soybean; [4])?
**A.** 3

**Q.** And the “Plant response rating, Soybean” value (soybean; [5])?
**A.** 6

**Q.** What about the “Plant response rating, Soybean” value (soybean; [6]) of the same molecule?
**A.** 7

**Q.** What about the “Plant response rating, B. signalgrass” value (surinam grass; [1]) of the same molecule?
**A.** 0

**Q.** And the “Plant response rating, B. signalgrass” value (surinam grass; [2])?
**A.** 4

**Q.** What about the “B. signalgrass plant response rating” value (surinam grass; [12]) of the same molecule?
**A.** 6

**Q.** And the “B. signalgrass plant response rating” value (surinam grass; [3])?
**A.** 3

**Q.** What about the “B. signalgrass plant response rating” value (surinam grass; [4]) of the same molecule?
**A.** 5

**Q.** What about the “Plant response rating, B. signalgrass” value (surinam grass; [5]) of the same molecule?
**A.** 8

**Q.** And the “Plant response rating, B. signalgrass” value (surinam grass; [6])?
**A.** 8

**Q.** And the “B. signalgrass plant response rating” value (surinam grass; [7])?
**A.** 7

**Q.** And the “Plant response rating, Wild oats” value (wild oat; [1])?
**A.** 0

**Q.** What about the “Wild oats plant response rating” value (wild oat; [2]) of the same molecule?
**A.** 4

**Q.** And the “Wild oats plant response rating” value (wild oat; [3])?
**A.** 4

**Q.** And the “Wild oats plant response rating” value (wild oat; [4])?
**A.** 8

**Q.** What about the “Plant response rating, Wild oats” value (wild oat; [5]) of the same molecule?
**A.** 8

**Q.** And the “Plant response rating, Wild oats” value (wild oat; [6])?
**A.** 10

**Q.** What about the “Wild oats plant response rating” value (wild oat; [7]) of the same molecule?
**A.** 6

**Q.** What about the “Plant response rating, Cocklebur” value (cocklebur; [1]) of the same molecule?
**A.** 2

**Q.** And the “Cocklebur plant response rating” value (cocklebur; [2])?
**A.** 3

**Q.** And the “Cocklebur plant response rating” value (cocklebur; [12])?
**A.** 4

**Q.** And the “Cocklebur plant response rating” value (cocklebur; [3])?
**A.** 0

**Q.** What about the “Cocklebur plant response rating” value (cocklebur; [4]) of the same molecule?
**A.** 0

**Q.** And the “Plant response rating, Cocklebur” value (cocklebur; [5])?
**A.** 0

**Q.** What about the “Plant response rating, Cocklebur” value (cocklebur; [6]) of the same molecule?
**A.** 0

**Q.** And the “Cocklebur plant response rating” value (cocklebur; [7])?
**A.** 5

**Q.** And the “Plant response rating, Corn” value (corn; [1])?
**A.** 4

**Q.** And the “Corn plant response rating” value (corn; [2])?
**A.** 4

**Q.** What about the “Corn plant response rating” value (corn; [12]) of the same molecule?
**A.** 4

**Q.** And the “Corn plant response rating” value (corn; [3])?
**A.** 0

**Q.** What about the “Corn plant response rating” value (corn; [4]) of the same molecule?
**A.** 4

**Q.** And the “Plant response rating, Corn” value (corn; [5])?
**A.** 7

**Q.** What about the “Plant response rating, Corn” value (corn; [6]) of the same molecule?
**A.** 10

**Q.** And the “Corn plant response rating” value (corn; [7])?
**A.** 5

**Q.** And the “Plant response rating, Wheat” value (wheat; [1])?
**A.** 0

**Q.** What about the “Wheat plant response rating” value (wheat; [2]) of the same molecule?
**A.** 0

**Q.** What about the “Wheat plant response rating” value (wheat; [3]) of the same molecule?
**A.** 2

**Q.** And the “Wheat plant response rating” value (wheat; [4])?
**A.** 2

**Q.** What about the “Plant response rating, Wheat” value (wheat; [5]) of the same molecule?
**A.** 5

**Q.** And the “Plant response rating, Wheat” value (wheat; [6])?
**A.** 6

**Q.** What about the “Wheat plant response rating” value (wheat; [7]) of the same molecule?
**A.** 5

**Q.** And the “Plant response rating, Sugarbeets” value (sugar beet; [1])?
**A.** 0

**Q.** What about the “Sugarbeets plant response rating” value (sugar beet; [2]) of the same molecule?
**A.** 0

**Q.** What about the “Sugarbeets plant response rating” value (sugar beet; [3]) of the same molecule?
**A.** 5

**Q.** And the “Sugarbeets plant response rating” value (sugar beet; [4])?
**A.** 7

**Q.** What about the “Plant response rating, Sugarbeets” value (sugar beet; [5]) of the same molecule?
**A.** 8

**Q.** What about the “Plant response rating, Sugarbeets” value (sugar beet; [6]) of the same molecule?
**A.** 10

**Q.** What about the “Sugarbeets plant response rating” value (sugar beet; [7]) of the same molecule?
**A.** 3
